pIC50: −log10 of the molar value. Active and inactive are the calls of the source. The rule behind the calls is not given here.
Tests used:
[1] = Antioxidant activity assessed as DPPH radical scavenging activity measured every minute over 45 mins by spectrophotometry; assay type: physicochemical
[2] = Antioxidant activity assessed as ABTS radical scavenging activity by spectrophotometry; assay type: physicochemical
[3] = Antioxidant activity assessed as galvinoxyl radical scavenging activity measured over 30 mins by spectrophotometry; assay type: physicochemical
SH-SY5Y [4] = experiment: Cytotoxicity against human SH-SY5Y cells at 1 and 10 uM after 24 hrs by MTT assay; assay type: cell-based
SH-SY5Y [5] = experiment: Neuroprotective activity in human SH-SY5Y cells assessed as inhibition of 6-OH-DA-induced cytotoxicity at 10 uM compound incubated for 1 hr followed by 24 hrs incubation with 100 uM 6-OH-DA by MTT assay; assay type: functional, cell-based
[6] = Iron chelation activity of compound assessed as [Fe(ferrozine)3]2+ complex formation by spectrophotometry; assay type: physicochemical
SH-SY5Y [7] = experiment: Neuroprotective activity in human SH-SY5Y cells assessed as inhibition of 6-OH-DA-induced cytotoxicity at 1 uM compound incubated for 1 hr followed by 24 hrs incubation with 100 uM 6-OH-DA by MTT assay; assay type: functional, cell-based

Row | Structure (SMILES) | pIC50 [1] | pIC50 [2] | pIC50 [3] | Activity [6] | Activity (SH-SY5Y [4]) | inhibition (SH-SY5Y [5]) | inhibition (SH-SY5Y [7])
1 | COc1cc(/C=C/C=C/C(=O)O)ccc1O | 4.37 | 4.71 | 5.32 | – | Non-toxic | Active | –
2 | O=C(O)/C=C/C=C/c1ccc(O)c(O)c1 [DEMETHYLENATED PIPERIC ACID] | 4.74 | 4.95 | 5.60 | Active | Non-toxic | Active | Active
3 | O=C(O)/C=C/c1ccc(O)c(O)c1 [CAFFEIC ACID] | 4.66 | 4.76 | 4.57 | Active | – | – | –
4 | COc1ccc(/C=C/C=C/C(=O)O)cc1OC | < 4.12 | < 4.30 | – | – | Non-toxic | inactive | inactive

The next lines start with results.

Row | pIC50 [1] | pIC50 [2] | pIC50 [3] | Activity [6] | Structure (SMILES) | Activity (SH-SY5Y [4]) | inhibition (SH-SY5Y [5]) | inhibition (SH-SY5Y [7])
5 | 4.31 | 4.62 | 4.58 | – | COc1cc(/C=C/C(=O)O)ccc1O [FERULATE] | – | – | –
6 | 4.51 | 5.55 | 5.47 | – | Cc1c(C)c2c(c(C)c1O)CCC(C)(C(=O)O)O2 (racemic) [TROLOX] | – | – | –

Reference: ChEMBL document CHEMBL3739425, “Exploring cinnamic acid scaffold: development of promising neuroprotective lipophilic antioxidants” (Medchemcomm, 2015)
